{"source": "patent US8105994B2", "about": "“Personal wash cleanser comprising defined alkanoyl compounds, defined fatty acyl isethionate surfactant product and skin or hair benefit agent delivered in flocs upon dilution” (priority 2010, dated 2012)", "system": "skin, intrascapular area of the back", "assay": "14-day cumulative irritation Patch Test, cleansers diluted to 25% w/w in distilled water, occlusive patch", "description": "This was randomized, double-blind study. A sufficient number of subjects were recruited to ensure that 25 subjects completed the study. The 14-day cumulative irritation test was conducted as follows. Patching occurred for 14 consecutive days, except on Sundays. Patches applied on Saturday were left in place until Monday, when freshly prepared patches were applied. The designated patch test sites were approximately 2 cm×2 cm on the intrascapular area of the back. Approximately 0.2 mL of the test product was placed onto a Parke-Davis Readi-Bandage® occlusive patch that measured 2 cm×2 cm. Solutions were made by diluting the cleansers to 25% w/w in distilled water. The patch was then applied to the designated test site. The patches were secured with hypoallergenic tape (Scanpor {Allerderm} as needed). A 0.5% sodium dodecyl sulfate (SDS) solution was used as the control in the test.\nEach day following application, the patches were removed, the sites evaluated and identical patches reapplied to the same test sites. All evaluations were made using the following 6-point scoring system: • 0=No evidence of any effect • +=Barely perceptible (minimal, faint, uniform or spotty erythema) numerically equivalent to 0.5 • 1=Mild (pink, uniform erythema covering most of the contact site) • 2=Moderate (pink-red, erythema uniform in the entire contact site) • 3=Marked (bright red erythema with/without petechiae or papules) • 4=Severe (deep red erythema with/without vesiculation or weeping)\nIf a dermal reaction of 3 or 4 occur with any of the test articles at any point during the study, further patch testing on that subject was terminated at the test site involved, and the attained score was assigned to that site for the subsequent scheduled test days.\nCumulative irritation scores, which were the sum of the numerical irritation grades assigned daily during the 14-day test period, were calculated at the end of the study to compare mildness of the test products. […] The data were statistically analyzed using Tukey-Kramer Comparison, and statistical significance was determined at the 95% confidence level."}
{"smiles": "CCCCCCCCCCCCOS(=O)(=O)[O-].[Na+]", "note": "[0.5% SDS Solution, sodium dodecyl sulfate]", "values": [{"measurement": "Total irritation score compared to 0.5% SDS solution", "setting": "Table 1, first patch test (Olay products)", "result": 100, "unit": "%"}, {"measurement": "Patch test Total irritation score", "setting": "Table 1, first patch test (Olay products; 0.5% SDS control 783)", "result": 783}, {"measurement": "Total irritation score compared to 0.5% SDS solution", "setting": "Table 1, second patch test (Dove Deep Moisture)", "result": 100, "unit": "%"}, {"measurement": "Patch test Total irritation score", "setting": "Table 1, second patch test (Dove Deep Moisture; 0.5% SDS control 912)", "result": 912}]}
